# The supplement of paper PMC10307832
# Legend:
# Test in all cases: relative viability (nuclei count vs DMSO), 5 days (fraction); higher = more cells survive
# QS11 + Linsitinib = compound: C1CC2=C(C1)C=C(C=C2)OC3=NC(=C4C(=N3)N(C=N4)CC5=CC=C(C=C5)C6=CC=CC=C6)N[C@@H](CC7=CC=CC=C7)CO [QS11] + C[C@]1(O)C[C@@H](c2nc(-c3ccc4ccc(-c5ccccc5)nc4c3)c3c(N)nccn32)C1 [Linsitinib] (partner 1 µM)
# In short: (§1)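 Lung cancer cell lines in 1536-well plates were dosed by pin tool the day after seeding, either with one drug alone or with a fixed anchor-drug dose plus five library-drug doses (not always all listed) in √10 steps. After 5 days, cells were fixed and their nuclei stained in one step (final 0.05% Triton X-100, 1% formaldehyde, 1 ug/ml Hoechst), then counted on 4× images. Relative viability is the nuclei count in treated wells divided by that in vehicle wells. Values are medians of duplicate plates.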
# Darinaparsin + Lapatinib = compound: C[As](C)SC[C@H](NC(=O)CC[C@H](N)C(=O)O)C(=O)NCC(=O)O [Darinaparsin] + CS(=O)(=O)CCNCc1ccc(-c2ccc3ncnc(Nc4ccc(OCc5cccc(F)c5)c(Cl)c4)c3c2)o1 [Lapatinib] (partner 2 µM)
# In short: as §1
# QS11 + Decitabine = compound: C1CC2=C(C1)C=C(C=C2)OC3=NC(=C4C(=N3)N(C=N4)CC5=CC=C(C=C5)C6=CC=CC=C6)N[C@@H](CC7=CC=CC=C7)CO [QS11] + Nc1ncn([C@H]2C[C@H](O)[C@@H](CO)O2)c(=O)n1 [Decitabine] (partner 2 µM)
# In short: as §1
# [1] = compound: C[As](C)SC[C@H](NC(=O)CC[C@H](N)C(=O)O)C(=O)NCC(=O)O [Darinaparsin] + CC(C)C[C@H](NC(=O)[C@H](Cc1ccccc1)NC(=O)c1cnccn1)B(O)O [Bortezomib] (partner 0.002 µM)
# In short: as §1
Cell Line,relative viability (QS11 + Linsitinib; first compound 0.08 µM),relative viability (QS11 + Linsitinib; first compound 0.253 µM),relative viability (QS11 + Linsitinib; first compound 0.8 µM),relative viability (QS11 + Linsitinib; first compound 2.53 µM),relative viability (QS11 + Linsitinib; first compound 8 µM),relative viability (Darinaparsin + Lapatinib; first compound 0.08 µM),relative viability (Darinaparsin + Lapatinib; first compound 0.8 µM),relative viability (Darinaparsin + Lapatinib; first compound 2.53 µM),relative viability (Darinaparsin + Lapatinib; first compound 8 µM),relative viability (QS11 + Decitabine; first compound 0.08 µM),relative viability (QS11 + Decitabine; first compound 0.253 µM),relative viability (QS11 + Decitabine; first compound 0.8 µM),relative viability (QS11 + Decitabine; first compound 2.53 µM),relative viability (QS11 + Decitabine; first compound 8 µM),relative viability ([1]; first compound 0.08 µM),relative viability ([1]; first compound 0.8 µM),relative viability ([1]; first compound 2.53 µM),relative viability ([1]; first compound 8 µM)
NCI-H1975,1.1,1.04,0.926,1.31,1.39,0.998,0.895,0.66,1.25,0.369,0.358,0.397,0.376,0.358,0.444,0.4,0.291,0.306
BEN,0.851,1.17,1.07,0.79,1.12,0.844,0.77,0.671,0.743,0.717,0.775,0.74,0.713,0.695,0.889,0.846,0.654,1
NCI-H1437,1.12,1.26,0.698,0.771,0.86,1.15,0.769,0.719,0.974,0.557,0.649,0.432,0.585,0.531,0.562,0.558,0.468,0.584
NCI-H1734,0.897,0.988,0.851,0.825,0.848,1.87,1.01,0.951,1.31,0.538,0.532,0.478,0.457,0.51,1.37,0.937,0.854,0.986
NCI-H596,1.04,1.02,1.01,1.1,1.16,1.1,1.02,1.01,1.06,1.26,0.87,0.971,1.17,1.04,1.35,1.09,1,1
LOU-NH91,0.901,0.862,,0.891,0.876,0.848,0.647,0.705,0.795,0.807,0.8,0.776,0.852,0.821,0.495,0.56,0.537,0.519
NCI-H2342,,,,,,,,,,0.744,0.724,0.715,0.718,0.77,,,,
NCI-H522,,,,,,,,,,0.704,0.569,0.677,0.664,0.726,,,,
SK-MES-1,1.13,1.08,0.959,1.03,1.05,0.539,0.444,0.439,0.519,0.361,0.444,0.339,0.447,0.351,,,,
UMC-11,1.06,1.16,1.08,1.17,1.24,1.22,0.977,0.928,1.05,0.318,0.482,0.604,0.543,0.651,0.81,0.728,0.442,0.739
LK-2,0.341,0.619,0.668,0.31,0.81,0.978,0.622,0.926,1.05,0.246,0.332,0.37,0.288,0.23,,,,
CAL-12T,1.01,0.693,0.695,0.688,0.7,0.698,0.557,0.775,0.68,,,,,,1.01,0.924,0.94,0.997
PC-3 [JPC-3],0.939,0.978,0.964,0.947,0.97,0.458,0.364,0.411,0.492,,0.76,0.836,0.871,0.806,0.98,0.829,0.73,0.815
NCI-H1651,1.12,0.987,0.813,0.939,0.581,1.01,0.881,0.759,1.09,0.591,0.641,0.54,0.566,0.578,1.05,1.05,0.917,1.12
NCI-H650,0.81,0.943,0.859,0.87,0.929,0.87,0.703,0.897,0.886,0.283,0.365,0.347,0.298,0.322,0.881,0.894,0.728,0.776
HOP-62,0.784,1.05,0.852,0.616,0.913,1.12,1.01,0.97,1.29,0.244,0.241,0.189,0.208,0.233,1.31,0.784,1.12,0.671
LC-2-ad,0.791,0.832,0.699,0.817,0.829,1.14,0.863,0.892,1.08,0.776,0.775,0.691,0.722,0.712,1.2,1.02,0.951,1.33
EPLC-272H,1.16,1.47,1.12,1.09,1.23,1.02,0.935,0.923,0.93,,0.382,0.388,0.385,0.341,1.07,0.969,0.74,0.9
SW 900,,,,,,,,,,0.37,0.475,0.413,0.491,0.412,,,,
EBC-1,0.966,0.86,0.696,0.75,1.05,0.2,0.211,0.246,0.223,,,,,,0.473,0.559,0.471,0.507
HCC-44,0.79,0.647,0.532,0.549,0.531,1.24,1.04,0.903,1.08,1.08,0.936,0.572,0.922,0.916,1.04,0.861,0.801,1.04
